The structures appear in SMILES notation.

The test deals with T1, human A2B receptor (Homo sapiens, UniProt P29275).
T1 construct: membranes prepared from them
T1 sequence (P29275 1-332): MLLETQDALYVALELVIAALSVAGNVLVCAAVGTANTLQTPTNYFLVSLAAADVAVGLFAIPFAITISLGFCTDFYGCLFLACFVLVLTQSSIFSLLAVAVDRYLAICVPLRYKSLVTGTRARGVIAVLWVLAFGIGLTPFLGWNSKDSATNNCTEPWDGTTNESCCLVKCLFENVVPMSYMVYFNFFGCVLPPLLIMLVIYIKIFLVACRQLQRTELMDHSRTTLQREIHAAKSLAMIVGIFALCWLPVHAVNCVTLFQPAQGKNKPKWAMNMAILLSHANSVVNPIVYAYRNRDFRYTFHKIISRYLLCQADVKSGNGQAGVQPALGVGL
Kind of test: Adenosine 2B receptor subtype competition radioligand binding assay ([3H]-DPCPX, membranes of HEK293 cells). The following applies: binding activity, 35 nM [3H]-DPCPX, A2B membranes from HEK293 cells. As for the experimental part: Adenosine 2B Receptor Subtype Competition Radioligand Binding Assay
A2B membranes were prepared from HEK293 cells stably expressing the human A2B receptor that were purchased from Euroscreen (ES-013-C). Competition assays were carried out incubating in polypropylene 96 well-plates (no 267245, NUNC) containing 2 μl of either 1% DMSO solution, test compound or 100 μM 5′NECA (SIGMA E-2387) for non-specific binding, 100 μg of A2B-membranes (prepared in Tris-HCl 50 mM pH 6.5, MgCl2 10 mM, EDTA 1 mM, benzamidine 0.1 mM; buffer A) and 35 nM [^3H]-DPCPX (TRK1064, 128 Ci/mmol, Amersham), in a total volume of 200 μl of buffer A+2 UI/ml adenosine deaminase, for 60 minutes at room temperature. At the end of the incubation, samples were transferred to a GF/C filter plates (Milipore MAFCNOB50) pretreated for 15 min. with 250 μl of Tris-HCl 50 mM pH 6.5 (Buffer B). Samples were then filtered 4 times with 250 μl of buffer B. Samples were counted using 30 μl of Hisafe II (Perkin Elmer) in a Trilux counter.
Compound `Cn1cncc1-c1nc2cc(-c3ccncc3F)c(-c3cccnc3)nc2[nH]1` [Example 46, 6-(3-Fluoropyridin-4-yl)-2-(1-methyl-1H-imidazol-5-yl)-5-pyridin-3-yl-3H-imidazo[4,5-b]pyridine] registered a Ki of 9.5 nM.

With `O=c1[nH]c2cc(-c3c(F)cncc3F)c(-c3cccnc3)nc2[nH]1` [Example 67, 6-(3,5-Difluoropyridin-4-yl)-5-pyridin-3-yl-1,3-dihydro-2H-imidazo[4,5-b]pyridin-2-one], the affinity corresponds to a Ki of 26 nM.

Regarding `Fc1ccc(Cc2nc3cc(-c4ccncc4F)c(-c4cccnc4)nc3[nH]2)cc1` [Example 16, 2-(4-Fluorobenzyl)-6-(3-fluoropyridin-4-yl)-5-pyridin-3-yl-3H-imidazo[4,6-b]pyridine], the Ki is 24 nM.

`CN(C)c1ccc(-c2nc3cc(-c4ccncc4F)c(-c4cccnc4)nc3[nH]2)cc1` [Example 7, N-{4-[6-(3-Fluoropyridin-4-yl)-5-pyridin-3-yl-3H-imidazo[4,5-b]pyridin-2-yl]phenyl}-N,N-dimethylamine] registered a Ki of 1.7 nM.

Consider `Cc1ccc(-c2nc3cc(-c4ccncc4F)c(-c4cccnc4)nc3[nH]2)cc1F` [Example 37, 2-(3-Fluoro-4-methylphenyl)-6-(3-fluoropyridin-4-yl)-5-pyridin-3-yl-3H-imidazo[4,5-b]pyridine], for which the affinity corresponds to a Ki of 2.2 nM.

Turning to `O=C(O)c1ccc(-c2nc3cc(-c4ccncc4F)c(-c4cccnc4)nc3[nH]2)cc1` [Example 11, 4-[6-(3-Fluoropyridin-4-yl)-5-pyridin-3-yl-3H-imidazo[4,5-b]pyridin-2-yl]benzoic acid], the Ki amounted to 8 nM.

For the compound `O=c1[nH]c2cc(-c3ccncc3)c(-c3ccncc3F)nc2[nH]1` [Example 23, 5-(3-Fluoropyridin-4-yl)-6-pyridin-4-yl-1,3-dihydro-2H-imidazo[4,5-b]pyridin-2-one], the Ki was found to be 7 nM.

With `COc1ccc(-c2nc3cc(-c4ccncc4F)c(-c4cccnc4)nc3[nH]2)cc1` [Example 6, 6-(3-Fluoropyridin-4-yl)-2-(4-methoxyphenyl)-6-pyridin-3-yl-3H-imidazo[4,5-b]pyridine], the Ki came to 0.8 nM.

`Fc1cnccc1-c1cc2nc(-c3cccnc3)[nH]c2nc1-c1cccnc1` [Example 39, 6-(3-Fluoropyridin-4-yl)-2,5-dipyridin-3-yl-3H-imidazo[4,5-b]pyridine] had a Ki of 3.8 nM.

As for `Fc1ccc(-c2nc3cc(-c4c(F)cncc4F)c(-c4cccnc4)nc3[nH]2)cc1` [Example 65, 6-(3,5-Difluoropyridin-4-yl)-2-(4-fluorophenyl)-5-pyridin-3-yl-3H-imidazo[4,5-b]pyridine], the Ki amounted to 2.8 nM.

`Fc1cccc(-c2nc3cc(-c4ccncc4F)c(-c4cccnc4)nc3[nH]2)c1` [Example 38, 2-(3-Fluorophenyl)-6-(3-fluoropyridin-4-yl)-5-pyridin-3-yl-3H-imidazo[4,6-b]pyridine] returned a Ki of 2.8 nM.

`O=C(O)c1ccc(-c2nc3cc(-c4c(F)cncc4F)c(-c4cccnc4)nc3[nH]2)cc1` [Example 66, 4-[6-(3,5-Difluoropyridin-4-yl)-5-pyridin-3-yl-3H-imidazo[4,5-b]pyridin-2-yl]benzoic acid] had a Ki of 23 nM.

`O=c1[nH]c2cc(-c3ccncc3F)c(-c3ncco3)nc2[nH]1` [Example 32, 6-(3-Fluoropyridin-4-yl)-5-(1,3-oxazol-2-yl)-1,3-dihydro-2H-imidazo[4,5-b]pyridin-2-one] returned a Ki of 24 nM.

`Fc1cnccc1-c1cc2nc(-c3ccncc3)[nH]c2nc1-c1cccnc1` [Example 12, 6-(3-Fluoropyridin-4-yl)-5-pyridin-3-yl-2-pyridin-4-yl-3H-imidazo[4,5-b]pyridine] registered a Ki of 1.8 nM.

As usually defined, the Ki is the equilibrium dissociation constant of an inhibitor or competing ligand from its target. High values mean lower affinity, low ones higher affinity.

Source of the values: patent US7855202B2, “Imidazopyridine derivatives as A2B adenosine receptor antagonists” (Laboratorios Almirall, S.A., priority 2005, dated 2010).
